These results are taken from patent US20180045675A1, “SINGLE-CELL INTRACELLULAR NANO-PH PROBES” (The Regents of the University of California, priority 2015, published 2018).

The experiment relates to MDA-MB-231 cells. Description: real-time intracellular pH measurement with nano-pH probe during chloride channel blocker exposure. The settings on record: single MDA-MB-231 cells. The format is cell-based, human. An excerpt: Sensing setup. To carry out analytical characterization experiments of chitosan-modified nanopipette sensors, a two-electrode setup connected to a potentiostat (1030C, CH Instruments Inc.) was used for sensing. A 125 μm platinum wire (Goodfellow Corporation) placed into nanopipettes filled with electrolyte served as the working electrode while a pseudo Ag/AgCl electrode placed in bulk solution (PBS or cell media) served as the reference electrode. Linear sweep voltammetry was utilized for all in vitro measurements with a scan rate of 0.1 V/sec.
Intracellular measurements were performed by combining the potentiostat and scanning ion conductance microscope (SICM) with a low-noise mechanical switch. The SICM setup consisted of an Axopatch 200B amplifier (Molecular Devices) for current feedback measurements, a MP-285 motorized micromanipulator (Sutter Instrument) for coarse positioning of the nano-pH probe, a piezo stage (NanoCube, Physik Instrumente) for fine positioning and insertion of the nano-pH probe sensors, and a programmable interface for hardware control of the setup. This system is run by custom software written in LabVIEW (National Instruments). All experiments with cells were conducted on an inverted fluorescence microscope (Olympus IX 70) equipped with an eyepiece camera (Dino-Eye, Big C).
Cell culture. […]
Chitosan-modified nanopipettes were inserted to individual cells using a customized scanning ion conductance microscope which detects current feedback for positioning the nanopipettes. […] After the insertion of the nano-pH probe into a cell, linear sweep voltammograms were recorded and the current-responses at a bias potential of 0.6 V were used to calculate the intracellular pH levels of single cells.
The present nano-pH probe can be used to monitor intracellular pH changes during drug therapy. […] Conventionally, the change in pH has been measured indirectly by introduction of fluorescent dye (BCECF-AM)^47,48. […] The measured pH levels stabilized by 4 min post NPPB introduction. […]

Regarding `O=C(O)c1cc([N+](=O)[O-])ccc1NCCCc1ccccc1` [NPPB, 5-nitro-2-(3-phenylpropylamino)-benzoate], where the note is “100 μM NPPB”, the “time by which measured pH levels stabilized post NPPB introduction” value is listed as at most 4 min and the “time within which intracellular pH level dropped significantly after introduction of NPPB” value was at most 2 min. The “lowest intracellular pH level after introduction of NPPB” value (100 μM NPPB in cell media, readings every 21 sec for 7 min, baseline around 7) is 2.5.
